The text below walks through data of patent US7071231B2, “Naphthalene ureas as glucose uptake enhancers” (Telik, Inc., priority 1999, dated 2006).

The test system of one experiment is 3T3 L1 fibroblasts. Nature of the experiment: Glucose transport activity assay (14C-2-deoxy-D-glucose uptake). As to conditions: EC (effective concentration) for increase in glucose transport; 14C-2-deoxy-D-glucose, 3T3 L1 cells; read-out: Concentration (μM) to reach >150% activity of vehicle control. Type of experiment: cell-based. The protocol: Glucose Transport Activity Assay.
Stimulation of the insulin receptor leads to the transport of glucose from the blood into cells, thus modulating blood glucose levels. 3T3 L1 fibroblasts (ATCC) were grown in Dulbecco's modified Eagle's medium (DMEM) with 10% fetal bovine serum (FBS). The cells were plated at a density of 3×10^4 cells/well in 24-well plates. Two days after confluence was reached, the cells were treated for 3 days with 0.5 mM isobutylmethylxanthine (IBMX), 1 μM dexamethasone, and 1.7 μM insulin. The cells were then transferred to DMEM with 10% FBS and supplemented with 1.7μM insulin for 2 more days. The cells were maintained in DMEM with 10% FBS for an additional 4 days. Finally the cells were serum-starved overnight in 0.1% bovine serum albumin (BSA) in DMEM.
The following day, the medium was replaced with 150 mM NaCl, 1.7 mM KCl, 0.9 mM CaCl2, K2HPO4 (pH 7.4) to which were added either the experimental compounds or their vehicle (DMSO). Insulin or its vehicle (0.01% BSA) was diluted in the assay buffer (containing test compound or vehicle, respectively) to final concentration of […]. After incubation for 30 min at 37° C., 5 μCi/ml ^14C-2-deoxy-D-glucose was added, and the incubation was continued for additional 30 min at 37° C. The cells were then washed 3 times with ice-cold PBS/20 mM glucose and lysed in 250 μl of lysis buffer (50 mM HEPES pH 7.6, 1% Triton X-100) for 30 min at room temperature. Radioactivity in the lysate was quantified by scintillation counting.
Once ^14C-2-deoxy-D-glucose is transported into the cell, it is not released. Glucose transport is, therefore, proportional to the amount of radioactivity in the lysate. The concentration of compound necessary to produce an increase in glucose transport to greater than 150% of the vehicle control (generally representing the sum of the standard deviation of the vehicle control plus the largest standard deviation of a test sample) was recorded as the EC (effective concentration). Shown in FIG. 3 is glucose uptake by cells at various concentrations when treated with Compound 13 and Compound 15.
Regarding “5-({[7-({[(7-{[(3-carboxy-4-chlorophenyl)amino]sulfonyl}(2-naphthyl))amino]iminomethyl}amino)(2-naphthyl)]sulfonyl}amino)-2-chlorobenzoic acid [Compound 160]”, the EC (150% of vehicle control) stood at 3.2 µM.
The same measure, in the same setting: for “5-[({7-[3-(7-{[(3-carboxy-4-hydroxyphenyl)amino]sulfonyl}(2-naphthyl))-2-oxoimidazolidinyl](2-naphthyl)}sulfonyl)amino]-2-hydroxybenzoic acid [Compound 122]” the value was 32 µM.

The experiment is the same for the next values; noted with them: Mus musculus, 3T3-L1, read-out: Concentration (μM) to reach >150% activity of vehicle control.
Consider `O=C(Nc1ccc2ccc(S(=O)(=O)Nc3ccc([N+](=O)[O-])c(C(=O)O)c3)cc2c1)Nc1ccc2ccc(S(=O)(=O)Nc3ccc([N+](=O)[O-])c(C(=O)O)c3)cc2c1` [Compound 38, 5-{[(7-{[N-(7-{[(3-carboxy-4-nitrophenyl)amino]sulfonyl}(2-naphthyl))carbamoyl]amino}(2-naphthyl))sulfonyl)amino}-2-nitrobenzoic acid], for which the EC (150% of vehicle control) was 3.2 µM.

Still in this experiment, the particulars now being: Mus musculus; EC (effective concentration) for increase in glucose transport; 14C-2-deoxy-D-glucose, 3T3 L1 cells; read-out: Concentration (μM) to reach >150% activity of vehicle control.
On to `O=C(Nc1ccc2ccc(S(=O)(=O)O)cc2c1)Nc1ccc2ccc(S(=O)(=O)Nc3ccc(S(=O)(=O)O)cc3)cc2c1` [Compound 20, 7-{[(7-{[(4-sulfophenyl)amino]sulfonyl}-2-naphthyl)amino]carbonylamino}naphthalene-2-sulfonic acid], for which the EC (150% of vehicle control) is 3.2 µM.
Same read-out and setting: under `O=C(Nc1ccc2ccc(S(=O)(=O)Nc3ccc(S(=O)(=O)O)cc3)cc2c1)Nc1ccc2ccc(S(=O)(=O)Nc3ccc(S(=O)(=O)O)cc3)cc2c1` [Compound 22, 4{[(7-{[N-(7-{[(4-sulfophenyl)amino]sulfonyl}-2-naphthyl)carbamoyl]amino}-2-naphthyl)sulfonyl]amino}benzenesulfonic acid] stands 3.2 µM; under `O=C(Nc1ccc2ccc(S(=O)(=O)Nc3ccc(C(=O)O)cc3)cc2c1)Nc1ccc2ccc(S(=O)(=O)Nc3ccc(C(=O)O)cc3)cc2c1` [Compound 25, 4-{[(7-{[N-(7-{[(4-carboxyphenyl)amino]sulfonyl}-2-naphthyl)carbamoyl]amino}-2-naphthyl)sulfonyl]amino}benzoic acid], 3.2 µM; under `O=C(Nc1ccc2ccc(S(=O)(=O)O)cc2c1)Nc1ccc2ccc(S(=O)(=O)Nc3cccc(C(=O)O)c3O)cc2c1` [Compound 30, 2-hydroxy-3-{[(7-{[N-(7-sulfo(2-naphthyl))carbamoyl]amino}(2-naphthyl))sulfonyl]amino}benzoic acid], 3.2 µM.
Regarding `O=C(Nc1ccc2ccc(S(=O)(=O)Nc3cccc(C(=O)O)c3O)cc2c1)Nc1ccc2ccc(S(=O)(=O)Nc3cccc(C(=O)O)c3O)cc2c1` [Compound 31, 3-{[(7-{[N-(7-{[(3-carboxy-2-hydroxyphenyl)amino]sulfonyl}(2-naphthyl))carbamoyl]amino}(2-naphthyl))sulfonyl]amino}-2-hydroxybenzoic acid], the EC (150% of vehicle control) is 3.2 µM.
Still for that read-out and setting: under `O=C(Nc1ccc2ccc(S(=O)(=O)O)cc2c1)Nc1ccc2ccc(S(=O)(=O)Nc3ccc(O)c(C(=O)O)c3)cc2c1` [Compound 32, 2-hydroxy-5-{[(7-{[N-(7-sulfo(2-naphthyl))carbamoyl]amino}(2-naphthyl))sulfonyl]amino}benzoic acid] stands 32 µM; under `O=C(Nc1ccc2ccc(S(=O)(=O)Nc3ccc(O)c(C(=O)O)c3)cc2c1)Nc1ccc2ccc(S(=O)(=O)Nc3ccc(O)c(C(=O)O)c3)cc2c1` [Compound 33, 5-{[(7-{[N-(7-{[(3-carboxy-4-hydroxyphenyl)amino]sulfonyl}(2-naphthyl))carbamoyl]amino}(2-naphthyl))sulfonyl]amino}-2-hydroxybenzoic acid], 3.2 µM; under `O=C(Nc1ccc2ccc(S(=O)(=O)O)cc2c1)Nc1ccc2ccc(S(=O)(=O)Nc3ccc(C(=O)O)c(O)c3)cc2c1` [Compound 34, 2-hydroxy-4-{[(7-{[N-(7-sulfo(2-naphthyl))carbamoyl]amino}(2-naphthyl))sulfonyl]amino}benzoic acid], over 32 µM.
In the case of `O=C(Nc1ccc2ccc(S(=O)(=O)Nc3ccc(C(=O)O)c(O)c3)cc2c1)Nc1ccc2ccc(S(=O)(=O)Nc3ccc(C(=O)O)c(O)c3)cc2c1` [Compound 35, 4-{[(7-{[N-(7-{[(4-carboxy-3-hydroxyphenyl)amino]sulfonyl}(2-naphthyl))carbamoyl]amino}(2-naphthyl))sulfonyl]amino}-2-hydroxybenzoic acid], the EC (150% of vehicle control) is 32 µM.
The same measure, in the same setting: for `O=C(Nc1ccc2ccc(S(=O)(=O)O)cc2c1)Nc1ccc2ccc(S(=O)(=O)Nc3ccc([N+](=O)[O-])c(C(=O)O)c3)cc2c1` [Compound 37, 2-nitro-5-{[(7-{[N-(7-sulfo(2-naphthyl))carbamoyl]amino}(2-naphthyl))sulfonyl]amino}benzoic acid] the value was 3.2 µM.
The same measure, in the same setting: for `O=C(Nc1ccc2c(O)cc(S(=O)(=O)Nc3ccc(O)c(C(=O)O)c3)cc2c1)Nc1ccc2c(O)cc(S(=O)(=O)Nc3ccc(O)c(C(=O)O)c3)cc2c1` [Compound 43, 5-{[(7-{[N-(7-{[(3-carboxy-4-hydroxyphenyl)amino]sulfonyl}-5-hydroxy(2-naphthyl))carbamoyl]amino}-4-hydroxy(2-naphthyl))sulfonyl]amino}-2-hydroxybenzoic acid] the value was 10 µM.
On the same count and under the same terms, under `O=C(Nc1ccc2ccc(S(=O)(=O)Nc3ccccc3C(=O)O)cc2c1)Nc1ccc2ccc(S(=O)(=O)Nc3ccccc3C(=O)O)cc2c1` [Compound 45, 2-{[(7-{[N-(7-{[(2-carboxyphenyl)amino]sulfonyl}-2-naphthyl)carbamoyl]amino}-2-naphthyl)sulfonyl]amino}benzoic acid] stands 3.2 µM.
Turning to `O=C(Nc1ccc2c(O)cc(S(=O)(=O)Nc3ccccc3C(=O)O)cc2c1)Nc1ccc2c(O)cc(S(=O)(=O)Nc3ccccc3C(=O)O)cc2c1` [Compound 47, 2-{[(7-{[N-(7-{[(2-carboxyphenyl)amino]sulfonyl}-5-hydroxy(2-naphthyl))carbamoyl]amino}-4-hydroxy-2-naphthyl)sulfonyl]amino}benzoic acid], the EC (150% of vehicle control) amounted to 3.2 µM.
On the same count and under the same terms, for `O=C(Nc1ccc2c(O)cc(S(=O)(=O)Nc3ccc(Cl)c(C(=O)O)c3)cc2c1)Nc1ccc2c(O)cc(S(=O)(=O)Nc3ccc(Cl)c(C(=O)O)c3)cc2c1` [Compound 49, 5-{[(7-{[N-(7-{[(3-carboxy-4-chlorophenyl)amino]sulfonyl}-5-hydroxy(2-naphthyl))carbamoyl]amino}-4-hydroxy(2-naphthyl))sulfonyl]amino}-2-chlorobenzoic acid] the value was 3.2 µM.
On the same count and under the same terms, under `COC(=O)c1cc(NS(=O)(=O)c2cc(O)c3ccc(NC(=O)Nc4ccc5c(O)cc(S(=O)(=O)Nc6cc(C(=O)OC)cc(C(=O)OC)c6)cc5c4)cc3c2)cc(C(=O)OC)c1` [Compound 50, methyl 3-({[7-({[7-({[3,5-bis(methoxycarbonyl)phenyl]amino}sulfonyl)-5-hydroxy(2-naphthyl)]amino}carbonylamino)-4-hydroxy(2-naphthyl)]sulfonyl}amino)-5-(methoxycarbonyl)benzoate] stands 3.2 µM.
`O=C(Nc1ccc2c(O)cc(S(=O)(=O)Nc3cc(C(=O)O)cc(C(=O)O)c3)cc2c1)Nc1ccc2c(O)cc(S(=O)(=O)Nc3cc(C(=O)O)cc(C(=O)O)c3)cc2c1` [Compound 51, 5-{[(7-{[N-(7-{[(3,5-dicarboxyphenyl)amino]sulfonyl}-5-hydroxy(2-naphthyl))carbamoyl]amino}-4-hydroxy-2-naphthyl)sulfonyl]amino}benzene-1,3-dicarboxylic acid]: the EC (150% of vehicle control) is over 32 µM.
Still for that read-out and setting: for `O=C(O)Cc1cccc(NS(=O)(=O)c2cc(O)c3ccc(NC(=O)Nc4ccc5c(O)cc(S(=O)(=O)Nc6cccc(CC(=O)O)c6)cc5c4)cc3c2)c1` [Compound 52, 2-[3-({[7-({[7-({[3-(carboxymethyl)phenyl]amino}sulfonyl)-5-hydroxy(2-naphthyl)]amino}carbonylamino)-4-hydroxy-2-naphthyl]sulfonyl}amino)phenyl]acetic acid] the value was 3.2 µM; for `O=C(Nc1ccc2ccc(S(=O)(=O)Nc3ccc(Br)c(C(=O)O)c3)cc2c1)Nc1ccc2ccc(S(=O)(=O)Nc3ccc(Br)c(C(=O)O)c3)cc2c1` [Compound 56, 2-bromo-5-{[(7-{[N-(7-{[(4-bromo-3-carboxyphenyl)amino]sulfonyl}(2-naphthyl))carbamoyl]amino}(2-naphthyl))sulfonyl]amino}benzoic acid], 3.2 µM.
